Measured values: ChEMBL document CHEMBL4814024, “Microwave assisted regioselective synthesis of quinoline appended triazoles as potent anti-tubercular and antifungal agents via copper (I) catalyzed cycloaddition” (Bioorg Med Chem Lett, 2021)
In brackets after ≈: the same amount, converted by molar mass.

Experiments:
[1] = system: Mycobacterium tuberculosis; assay: Antimycobacterial activity against Mycobacterium tuberculosis H37Rv ATCC 27294 assessed as reduction in bacterial growth by microplate alamar blue assay; format: functional
[2] = Selectivity index, ratio of IC50 for cytotoxicity against human HEK293 cells to MIC for antimycobacterial activity against Mycobacterium tuberculosis H37Rv ATCC 27294; format: toxicity, cell-based; conditions: read-out: Selectivity Index
HEK293 = assay: Cytotoxicity against HEK293 cells by MTT assay; format: cell-based; conditions: Homo sapiens
Aspergillus flavus = assay: Antifungal activity against Aspergillus flavus; format: functional
Candida albicans = assay: Antifungal activity against Candida albicans; format: functional
Aspergillus fumigatus = assay: Antifungal activity against Aspergillus fumigatus; format: functional
Aspergillus niger = assay: Antifungal activity against Aspergillus niger; format: functional
[3] = system: Mycobacterium tuberculosis; assay: Antimycobacterial activity against Mycobacterium tuberculosis; format: functional
[4] = system: Mycobacterium tuberculosis; assay: Antimycobacterial activity against Mycobacterium tuberculosis H37Rv assessed as reduction in bacterial growth incubated for 5 days by MTT assay; format: functional; conditions: 120 h, time 5 day

SMILES	MIC [1] [mg/L]	selectivity ratio [2]	IC50 (HEK293) [mg/L]	MIC (Aspergillus flavus) [mg/L]	MIC (Candida albicans) [mg/L]	MIC (Aspergillus fumigatus) [mg/L]	MIC (Aspergillus niger) [mg/L]	MIC [3] [mg/L]	MIC [4] [mg/L]
COc1ccc(-n2ncn(Cc3cn(Cc4cc5cccc(C)c5nc4Cl)nn3)c2=O)cc1	1.6 (≈ 3.46 µM)	366	586 (≈ 1270 µM)	0.2 (≈ 0.433 µM)	0.2 (≈ 0.433 µM)	3.12 (≈ 6.75 µM)	0.2 (≈ 0.433 µM)		
OC(Cn1cncn1)(Cn1cncn1)c1ccc(F)cc1F [FLUCONAZOLE]				25 (≈ 81.6 µM)	25 (≈ 81.6 µM)		25 (≈ 81.6 µM)		
COc1ccc(-n2ncn(Cc3cn(Cc4cc5ccc(Cl)cc5nc4Cl)nn3)c2=O)cc1	3.12 (≈ 6.47 µM)	470	1460 (≈ 3040 µM)	0.2 (≈ 0.415 µM)	0.2 (≈ 0.415 µM)	3.12 (≈ 6.47 µM)	0.2 (≈ 0.415 µM)		
O=C(N/N=C/c1cn(-c2ccc(Cl)cc2)nn1)c1ccncc1								0.62 (≈ 1.9 µM)	
O=c1n(Cc2cn(Cc3cc4cc(Br)ccc4nc3Cl)nn2)cnn1-c1ccccc1	25 (≈ 50.3 µM)	66.1	1650 (≈ 3330 µM)	0.2 (≈ 0.403 µM)	0.2 (≈ 0.403 µM)	3.12 (≈ 6.28 µM)	0.2 (≈ 0.403 µM)		
O=c1n(Cc2cn(Cc3cc4ccccc4nc3Cl)nn2)cnn1-c1ccccc1	25 (≈ 59.8 µM)	26.2	655 (≈ 1570 µM)	0.2 (≈ 0.479 µM)	0.2 (≈ 0.479 µM)	3.12 (≈ 7.47 µM)	0.2 (≈ 0.479 µM)		
COc1ccc(-n2ncn(Cc3cn(Cc4cc5cc(Cl)ccc5nc4Cl)nn3)c2=O)cc1	3.12 (≈ 6.47 µM)	340	1060 (≈ 2200 µM)	0.2 (≈ 0.415 µM)	0.2 (≈ 0.415 µM)	3.12 (≈ 6.47 µM)	0.2 (≈ 0.415 µM)		
NNC(=O)c1ccncc1 [ISONIAZID]	1.6 (≈ 11.7 µM)								
COc1ccc(-n2ncn(Cc3cn(Cc4cc5ccccc5nc4Cl)nn3)c2=O)cc1	12.5 (≈ 27.9 µM)	76.7	958 (≈ 2140 µM)	0.2 (≈ 0.447 µM)	0.2 (≈ 0.447 µM)	3.12 (≈ 6.97 µM)	0.2 (≈ 0.447 µM)		
O=c1n(Cc2cn(Cc3cc4ccc(Cl)cc4nc3Cl)nn2)cnn1-c1ccccc1	25 (≈ 55.3 µM)	34.8	869 (≈ 1920 µM)	0.2 (≈ 0.442 µM)	0.2 (≈ 0.442 µM)	3.12 (≈ 6.9 µM)	0.2 (≈ 0.442 µM)		
O=C(O)c1cn(C2CC2)c2cc(N3CCNCC3)c(F)cc2c1=O [CIPROFLOXACIN]	3.12 (≈ 9.42 µM)								
C[C@@H](N1CCN(c2ccc(-n3cnnn3)cc2)C1=O)[C@](O)(Cn1cncn1)c1ccc(F)cc1F						1 (≈ 2.08 µM)			
Cc1ccc2nc(Cl)c(Cn3cc(Cn4cnn(-c5ccccc5)c4=O)nn3)cc2c1	3.12 (≈ 7.22 µM)	153	478 (≈ 1110 µM)	0.2 (≈ 0.463 µM)	0.2 (≈ 0.463 µM)	3.12 (≈ 7.22 µM)	0.2 (≈ 0.463 µM)		
COc1ccc(-n2ncn(Cc3cn(Cc4cc5cc(C)ccc5nc4Cl)nn3)c2=O)cc1	1.6 (≈ 3.46 µM)	384	615 (≈ 1330 µM)	0.2 (≈ 0.433 µM)	0.2 (≈ 0.433 µM)	3.12 (≈ 6.75 µM)	0.2 (≈ 0.433 µM)		
CCCCCCCCc1cn(CC(=O)OCC)nn1									0.5 (≈ 1.87 µM)
O=c1n(Cc2cn(Cc3cc4cc(Cl)ccc4nc3Cl)nn2)cnn1-c1ccccc1	12.5 (≈ 27.6 µM)	36.7	459 (≈ 1010 µM)	0.2 (≈ 0.442 µM)	0.2 (≈ 0.442 µM)	3.12 (≈ 6.9 µM)	0.2 (≈ 0.442 µM)		
Cc1cccc2cc(Cn3cc(Cn4cnn(-c5ccccc5)c4=O)nn3)c(Cl)nc12	1.6 (≈ 3.7 µM)	234	729 (≈ 1690 µM)	0.2 (≈ 0.463 µM)	0.2 (≈ 0.463 µM)	3.12 (≈ 7.22 µM)	0.2 (≈ 0.463 µM)		
NC(=O)c1cnccn1 [PYRAZINAMIDE]	6.25 (≈ 50.8 µM)								
COc1ccc2cc(Cn3cc(Cn4cnn(-c5ccccc5)c4=O)nn3)c(Cl)nc2c1	1.6 (≈ 3.57 µM)	630	1010 (≈ 2250 µM)	0.2 (≈ 0.447 µM)	0.2 (≈ 0.447 µM)	3.12 (≈ 6.97 µM)	0.2 (≈ 0.447 µM)		
COc1ccc(-n2ncn(Cc3cn(Cc4cc5cc(Br)ccc5nc4Cl)nn3)c2=O)cc1	6.25 (≈ 11.9 µM)	53.2	333 (≈ 632 µM)	0.2 (≈ 0.38 µM)	0.2 (≈ 0.38 µM)	3.12 (≈ 5.92 µM)	0.2 (≈ 0.38 µM)		
